Positions of bridges follow the written chain, without caps; N, C: chain ends. Non-standard residues stand in square brackets, D forms with d. Residues, ends and D or L forms follow the SMILES beside them. *: point of attachment. Phe(4-COOH) = N[C@@H](Cc1ccc(C(=O)O)cc1)C(=O)O; Bip = N[C@@H](Cc1ccc(-c2ccccc2)cc1)C(=O)O; NMeY = CN[C@@H](Cc1ccc(O)cc1)C(=O)O; NMeF = CN[C@@H](Cc1ccccc1)C(=O)O; Cha = N[C@@H](CC1CCCCC1)C(=O)O; Cit = NC(=O)NCCC[C@H](N)C(=O)O; Carboxymethyl = O=C(O)C*; NMeA = CN[C@@H](C)C(=O)O; Orn = NCCC[C@H](N)C(=O)O; Dab = NCC[C@H](N)C(=O)O; Dap = NC[C@H](N)C(=O)O; Sar = CNCC(=O)O
The compounds below were run against T1, human PD-1 (Jurkat-PD-1 cells) / PE-labeled human PD-L1-Ig (Homo sapiens, UniProt Q15116) (assay: Jurkat-PD-1 Cell Binding High-Content Screening Assay (CBA); Jurkat hPD1-PDL1 assay). Settings: Jurkat cell line over-expressing human PD-1; PE-labeled PD-L1-Ig 20 nM final; compound incubated 2 hours at 37° C.; read-out: Jurkat HPD1-PDL1 IC50.
T1 construct: expressed in transfected cells; host or cells: Jurkat cell line over-expressing human PD-1
In short: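 Compound was added to Jurkat-PD-1 cells in DMEM plus 10% fetal calf serum and incubated 2 hours at 37° C. Binding of phycoerythrin-conjugated PD-L1-Ig (20 nM final) to the cells was imaged.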

T1 sequence (Q15116 25-288): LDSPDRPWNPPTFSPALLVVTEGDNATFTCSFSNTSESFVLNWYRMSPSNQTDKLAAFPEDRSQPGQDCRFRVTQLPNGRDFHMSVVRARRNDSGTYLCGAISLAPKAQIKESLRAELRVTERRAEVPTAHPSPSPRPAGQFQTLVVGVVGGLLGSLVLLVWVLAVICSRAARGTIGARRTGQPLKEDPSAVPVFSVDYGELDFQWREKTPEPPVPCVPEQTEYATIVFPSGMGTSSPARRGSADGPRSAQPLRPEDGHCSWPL

Row | IC50 [nM] | Compound
1 | 380 | CC(C)C[C@@H]1NC(=O)[C@H](CCCNC(=N)N)NC(=O)[C@H](Cc2ccccc2)N(C)C(=O)[C@H](C)N(C)C(=O)[C@H](CCC(=O)O)NC(=O)[C@H](Cc2ccc(-c3ccccc3)cc2)NC(=O)[C@H](C(C)C)NC(=O)[C@H](Cc2c[nH]c3ccccc23)NC(=O)[C@H](CC(=O)O)NC(=O)[C@H](Cc2ccc(O)cc2)NC(=O)[C@H](Cc2ccccc2)NC(=O)CSC[C@@H](C(=O)N[C@@H](CCC(=O)O)C(N)=O)NC(=O)[C@H]([C@@H](C)O)NC(=O)[C@H](C(C)C)NC1=O [Example 1351] ({CH2CO}-FYDWV[Bip]E[NMeA][NMeF]RLVTCE-NH2; thioether N-14)
2 | 590 | CC(C)C[C@@H]1NC(=O)[C@H](CCCNC(=N)N)NC(=O)[C@H](Cc2ccccc2)N(C)C(=O)[C@H](CN)NC(=O)[C@H](CCCNC(=N)N)NC(=O)[C@H](Cc2ccc(-c3ccccc3)cc2)NC(=O)[C@H](C(C)C)NC(=O)[C@H](Cc2c[nH]c3ccccc23)NC(=O)[C@H](CC(=O)O)NC(=O)[C@H](Cc2ccc(O)cc2)NC(=O)[C@H](CC(N)=O)NC(=O)CSC[C@@H](C(=O)N[C@@H](C)C(N)=O)NC(=O)[C@H]([C@@H](C)O)NC(=O)[C@H](C(C)C)NC1=O [Example 1364] ({CH2CO}-NYDWV[Bip]R[Dap][NMeF]RLVTCA-NH2; thioether N-14)
3 | 170 | CC(C)C[C@@H]1NC(=O)[C@H](CCN)NC(=O)[C@H](Cc2ccccc2)N(C)C(=O)[C@H](C)N(C)C(=O)[C@H](CCCNC(=N)N)NC(=O)[C@H](Cc2ccc(-c3ccccc3)cc2)NC(=O)[C@H](C(C)C)NC(=O)[C@H](Cc2c[nH]c3ccccc23)NC(=O)[C@H](CC(=O)O)NC(=O)[C@H](Cc2ccc(O)cc2)NC(=O)[C@H](CCC(N)=O)NC(=O)CSC[C@@H](C(=O)N[C@@H](C)C(N)=O)NC(=O)[C@H](CO)NC(=O)[C@H](C(C)C)NC1=O [Example 1307] ({CH2CO}-QYDWV[Bip]R[NMeA][NMeF][Dab]LVSCA-NH2; thioether N-14)
4 | 30 | CC(C)C[C@@H]1NC(=O)[C@H](Cc2c[nH]c3ccccc23)NC(=O)[C@H](CC(=O)O)NC(=O)[C@H](Cc2ccc(O)cc2)NC(=O)[C@H](Cc2ccccc2)NC(=O)CSC[C@@H](C(=O)N[C@@H](C)C(N)=O)NC(=O)[C@H](CO)NC(=O)[C@H](C(C)C)NC(=O)[C@H](CC(C)C)NC(=O)[C@H](CC(N)=O)NC(=O)[C@H]2CCCN2C(=O)[C@H](CCCN)NC(=O)[C@H](C(C)C)NC(=O)[C@H](Cc2ccc(-c3ccccc3)cc2)NC1=O [Example 1200] ({CH2CO}-FYDWL[Bip]V[Orn][dP]NLVSCA-NH2; thioether N-14)
5 | 80 | CC(C)C[C@@H]1NC(=O)[C@H](CCCNC(=N)N)NC(=O)[C@H](Cc2ccccc2)N(C)C(=O)[C@H](C)N(C)C(=O)[C@H](CCC(=O)O)NC(=O)[C@H](Cc2ccc(-c3ccccc3)cc2)NC(=O)[C@H](C(C)C)NC(=O)[C@H](Cc2c[nH]c3ccccc23)NC(=O)[C@H](CC(=O)O)NC(=O)[C@H](Cc2ccc(O)cc2)NC(=O)[C@H](Cc2cnc[nH]2)NC(=O)CSC[C@@H](C(=O)NCC(N)=O)NC(=O)[C@H](CO)NC(=O)[C@H](C(C)C)NC1=O [Example 1288] ({CH2CO}-HYDWV[Bip]E[NMeA][NMeF]RLVSCG-NH2; thioether N-14)
6 | 240 | CC(C)C[C@@H]1NC(=O)[C@H](CCCNC(=N)N)NC(=O)[C@H](Cc2ccccc2)N(C)C(=O)[C@H](C)N(C)C(=O)[C@H](CCCNC(=N)N)NC(=O)[C@H](Cc2ccc(-c3ccccc3)cc2)NC(=O)[C@H](C(C)C)NC(=O)[C@H](Cc2c[nH]c3ccccc23)NC(=O)[C@H](CC(=O)O)NC(=O)[C@H](Cc2ccc(O)cc2)NC(=O)[C@H](Cc2ccccc2)NC(=O)CSC[C@@H](C(=O)N[C@@H](CO)C(N)=O)NC(=O)[C@H](CO)NC(=O)[C@H](C(C)C)NC1=O [Example 1083] ({CH2CO}-FYDWV[Bip]R[NMeA][NMeF]RLVSCS-NH2; thioether N-14)
7 | 260 | CC(C)[C@@H]1NC(=O)[C@H](Cc2c[nH]c3ccccc23)NC(=O)[C@H](CC(=O)O)NC(=O)[C@H](Cc2ccc(C(=O)O)cc2)NC(=O)[C@H](Cc2ccc(OCC(=O)O)cc2)NC(=O)CSC[C@@H](C(=O)N[C@@H](C)C(N)=O)NC(=O)[C@H]([C@@H](C)O)NC(=O)[C@H](C(C)C)NC(=O)[C@H](CC2CCCCC2)NC(=O)[C@H](CCN)NC(=O)[C@H](Cc2ccc(O)cc2)N(C)C(=O)[C@H](CCCN)NC(=O)[C@H](CCC(=O)O)NC(=O)[C@H](Cc2ccc(-c3ccccc3)cc2)NC1=O [Example 1433] ({CH2CO}-Y(Carboxymethyl)[Phe(4-COOH)]DWV[Bip]E[Orn][NMeY][Dab][Cha]VTCA-NH2; thioether N-14)
8 | 840 | CC(C)C[C@@H]1NC(=O)[C@H](CCCNC(=N)N)NC(=O)[C@H](Cc2ccccc2)N(C)C(=O)[C@H](CCCNC(N)=O)NC(=O)[C@H](CCCNC(=N)N)NC(=O)[C@H](Cc2ccc(-c3ccccc3)cc2)NC(=O)[C@H](C(C)C)NC(=O)[C@H](Cc2c[nH]c3ccccc23)NC(=O)[C@H](CC(=O)O)NC(=O)[C@H](Cc2ccc(O)cc2)NC(=O)[C@H](Cc2ccccc2)NC(=O)CSC[C@@H](C(=O)NCC(N)=O)NC(=O)[C@H](CO)NC(=O)[C@H](C(C)C)NC1=O [Example 1276] ({CH2CO}-FYDWV[Bip]R[Cit][NMeF]RLVSCG-NH2; thioether N-14)
9 | 70 | CC(C)C[C@@H]1NC(=O)[C@H](Cc2c[nH]c3ccccc23)NC(=O)[C@H](CC(=O)O)NC(=O)[C@H](Cc2ccc(O)cc2)NC(=O)[C@H](Cc2ccccc2)NC(=O)CSC[C@@H](C(=O)NCC(N)=O)NC(=O)[C@H]([C@@H](C)O)NC(=O)[C@H](C(C)C)NC(=O)[C@H](CC(C)C)NC(=O)[C@H](CCN)NC(=O)[C@H]2CCCN2C(=O)[C@H](C)N(C)C(=O)[C@H](C(C)C)NC(=O)[C@H](Cc2ccc(-c3ccccc3)cc2)NC1=O [Example 1396] ({CH2CO}-FYDWL[Bip]V[NMeA][dP][Dab]LVTCG-NH2; thioether N-14)
10 | 70 | CC(C)C[C@@H]1NC(=O)[C@H](Cc2c[nH]c3ccccc23)NC(=O)[C@H](CC(=O)O)NC(=O)[C@H](Cc2ccc(O)cc2)NC(=O)[C@H](Cc2ccccc2)NC(=O)CSC[C@@H](C(=O)NCC(N)=O)NC(=O)[C@H](CO)NC(=O)[C@H](C(C)C)NC(=O)[C@H](CC(C)C)NC(=O)[C@H](CCN)NC(=O)[C@H]2CCCN2C(=O)[C@H](CCN)NC(=O)[C@H](C(C)C)NC(=O)[C@H](Cc2ccc(-c3ccccc3)cc2)NC1=O [Example 1417] ({CH2CO}-FYDWL[Bip]V[Dab][dP][Dab]LVSCG-NH2; thioether N-14)
11 | 420 | CC(C)C[C@@H]1NC(=O)[C@H](Cc2c[nH]c3ccccc23)NC(=O)[C@H](CC(=O)O)NC(=O)[C@H](Cc2ccc(O)cc2)NC(=O)[C@H](Cc2ccccc2)NC(=O)CSC[C@@H](C(=O)N[C@@H](C)C(N)=O)NC(=O)[C@H](CO)NC(=O)[C@H](C(C)C)NC(=O)[C@H](CC(C)C)NC(=O)[C@H](CC(N)=O)NC(=O)[C@H]2CCCN2C(=O)[C@@H](CCCCN)NC(=O)[C@H](C(C)C)NC(=O)[C@H](Cc2ccc(-c3ccccc3)cc2)NC1=O [Example 1197] ({CH2CO}-FYDWL[Bip]V[dK][dP]NLVSCA-NH2; thioether N-14)
12 | 60 | CC(C)C[C@@H]1NC(=O)[C@H](Cc2c[nH]c3ccccc23)NC(=O)[C@H](CC(=O)O)NC(=O)[C@H](Cc2ccc(OCC(=O)O)cc2)NC(=O)[C@H](Cc2ccccc2)NC(=O)CSC[C@@H](C(=O)NCC(N)=O)NC(=O)[C@H](CO)NC(=O)[C@H](C(C)C)NC(=O)[C@H](CC(C)C)NC(=O)[C@H](CC(N)=O)NC(=O)CN(C)C(=O)[C@H](C)N(C)C(=O)[C@H](C(C)C)NC(=O)[C@H](Cc2ccc(-c3ccccc3)cc2)NC1=O [Example 1030] ({CH2CO}-FY(Carboxymethyl)DWL[Bip]V[NMeA][Sar]NLVSCG-NH2; thioether N-14)
13 | 610 | CC[C@H](C)[C@@H]1NC(=O)[C@H](CC(C)C)NC(=O)[C@H](CC(N)=O)NC(=O)CN(C)C(=O)[C@H](C)N(C)C(=O)[C@H](C(C)C)NC(=O)[C@H](Cc2ccc(-c3ccccc3)cc2)NC(=O)[C@H](CC(C)C)NC(=O)[C@H](Cc2c[nH]c3ccccc23)NC(=O)[C@H](CC(=O)O)NC(=O)[C@H](Cc2ccc(O)cc2)NC(=O)[C@H](Cc2ccccc2)NC(=O)CSC[C@@H](C(=O)NCC(N)=O)NC(=O)[C@H](CO)NC1=O [Example 1142] ({CH2CO}-FYDWL[Bip]V[NMeA][Sar]NLISCG-NH2; thioether N-14)
14 | 140 | CC(C)C[C@@H]1NC(=O)[C@H](Cc2c[nH]c3ccccc23)NC(=O)[C@H](CC(=O)O)NC(=O)[C@H](Cc2ccc(O)cc2)NC(=O)[C@H](Cc2ccccc2)NC(=O)CSC[C@@H](C(=O)N[C@@H](C)C(N)=O)NC(=O)[C@H]([C@@H](C)O)NC(=O)[C@H](C(C)C)NC(=O)[C@H](CC(C)C)NC(=O)[C@H](CCN)NC(=O)[C@H]2CCCN2C(=O)[C@H](CCCN)NC(=O)[C@H](C(C)C)NC(=O)[C@H](Cc2ccc(-c3ccccc3)cc2)NC1=O [Example 1422] ({CH2CO}-FYDWL[Bip]V[Orn][dP][Dab]LVTCA-NH2; thioether N-14)
15 | 820 | CC(C)C[C@@H]1NC(=O)[C@H](CCCNC(=N)N)NC(=O)[C@H](Cc2ccccc2)N(C)C(=O)[C@H](C)N(C)C(=O)[C@H](C)NC(=O)[C@H](Cc2ccc(-c3ccccc3)cc2)NC(=O)[C@H](C(C)C)NC(=O)[C@H](Cc2c[nH]c3ccccc23)NC(=O)[C@H](CC(=O)O)NC(=O)[C@H](Cc2ccc(O)cc2)NC(=O)[C@H](Cc2ccccc2)NC(=O)CSC[C@@H](C(=O)NCC(N)=O)NC(=O)[C@H](CO)NC(=O)[C@H](C(C)C)NC1=O [Example 1208] ({CH2CO}-FYDWV[Bip]A[NMeA][NMeF]RLVSCG-NH2; thioether N-14)
16 | 310 | CC(C)C[C@@H]1NC(=O)[C@H](Cc2c[nH]c3ccccc23)NC(=O)[C@H](CC(=O)O)NC(=O)[C@H](Cc2ccc(O)cc2)NC(=O)[C@H](Cc2ccccc2)NC(=O)CSC[C@@H](C(=O)N[C@@H](CCN)C(N)=O)NC(=O)[C@H](CO)NC(=O)[C@H](C(C)C)NC(=O)[C@H](CC(C)C)NC(=O)[C@H](CC(N)=O)NC(=O)CN(C)C(=O)[C@H](C)N(C)C(=O)[C@H](C(C)C)NC(=O)[C@H](Cc2ccc(-c3ccccc3)cc2)NC1=O [Example 1103] ({CH2CO}-FYDWL[Bip]V[NMeA][Sar]NLVSC[Dab]-NH2; thioether N-14)

From patent US20240360178A1, “MACROCYCLIC IMMUNOMODULATORS” (Bristol-Myers Squibb Company, priority 2021, published 2024)
